Test system: VIC cells
Assay: VIC calcification reduction (Alizarin Red S nodule number and area)
Type: cell-based, porcine
Experimental: VIC Isolation and Culture. VICs were isolated from porcine aortic valve leaflets (Hormel, Austin, Minn.) by collagenase digestion and subsequently cultured in growth medium (15% FBS, 2 mM L-glutamine, 100 U/ml penicillin, and 100 µg/ml streptomycin in medium 199) at 37° C., 5% CO2 for two to four passages. VICs used in all experiments were seeded at a density of 50,000 cells/cm^2 onto 24-well or 96-well plates. During the experiments, the VICs were cultured in low-serum medium (1% FBS, 100 U/ml penicillin, 100 µg/ml streptomycin, 2 mM L-glutamine, in medium 199), and the medium was changed each day until the fifth day.
Culture Substrate Coatings. Tissue culture polystyrene (TCPS) plates (24-well or 96-well) were coated with type I collagen (Coll) (Inamed Biomaterials, Fremont, Calif.; […]), fibronectin (FN, 5 g/cm^2), fibrin (FB, […]), or left untreated (TCPS). For the FB coating, plates were first incubated overnight at 4° C. in fibrinogen (1 mg/mL), followed by three washes with 0.05% Tween 20 in phosphate-buffered saline (PBS) and 1 hour incubation with thrombin (0.6 mg/ml) at 37° C. (Gu et al., “Role of the MAPK/ERK Pathway in Valvular Interstitial Cell Calcification,” American Journal of Physiology—Heart and Circulatory Physiology 296(6):H1748-H1757 (2009), which is hereby incorporated by reference in its entirety). All coatings were prepared in 50 mM bicarbonate coating buffer, pH 8.5, and rinsed three times with PBS before cell seeding. The amounts of adsorbed proteins were measured on separate plates using the bicinchoninic acid protein assay (Pierce, Rockford, Ill.) to verify adsorption of protein coatings.
Quantification of Nodule Number and Size. After 5 days of culture in the presence or absence of U-0126 or PD-98059, VIC cultures were stained with Alizarin Red S (ARS) to facilitate quantification of calcified nodules, as ARS stains mineralized deposits red. Cultures were fixed with 10% neutral buffered formalin, stored at 4° C. overnight, and stained with a 2% solution of ARS in PBS. Positively stained nodules were manually counted under a microscope (Olympus IX51 with Hamamatsu 285 digital camera and Simple PCI digital imaging software; Compix, Imaging Systems, Cranberry Township, Pa.). Nodule size was measured using ImageJ software (National Institutes of Health), and photomicrographs were captured under 40 and 100 magnifications.
Multiplate wells containing calcifying VICs from 27 different tissue samples were treated with CBD of 8 different bioactivities, and 5 different mg concentrations, or left untreated. Average calcification was computed using the number of nodules per well, and the average area per nodule. Average total nodule area for untreated wells was 3.27 mm^2 (SD=0.32, min=0.5, max=4.0) per well. All reported percent reductions in calcification were computed by dividing average nodule area of treated wells from 3.27 mm^2. CBD samples were clustered according to their bioactivity levels around the values, 0.20, 0.30, 0.50, 0.60, 0.70, 0.80, 0.90, and 0.95. Mg dosages of 5, 10, 25, 40, and 100 were examined.
Culture Substrate Coatings. Tissue culture polystyrene (TCPS) plates (24-well or 96-well) were coated with type I collagen (Coll) (Inamed Biomaterials, Fremont, Calif.; […]), fibronectin (FN, 5 g/cm^2), fibrin (FB, 1.5 g/cm^2), or left untreated (TCPS). For the FB coating, plates were first incubated overnight at 4° C. in fibrinogen (1 mg/mL), followed by three washes with 0.05% Tween 20 in phosphate-buffered saline (PBS) and 1 hour incubation with thrombin (0.6 mg/mL) at 37° C. All coatings were prepared in 50 mM bicarbonate coating buffer, pH 8.5, and rinsed three times with PBS before cell seeding. The amounts of adsorbed proteins were measured on separate plates using the bicinchoninic acid protein assay (Pierce, Rockford, Ill.) to verify adsorption of protein coatings. […]

[1] = Example 4, 5 mg, CBD = 0.95 bioactivity
[2] = Example 4, 10 mg, CBD = 0.95 bioactivity
[3] = Example 4, 25 mg, CBD = 0.95 bioactivity
[4] = Example 4, 40 mg, CBD = 0.95 bioactivity
[5] = Example 4, 100 mg, CBD = 0.95 bioactivity

## C=C(C)C1CCC(C)=CC1c1c(O)cc(CCCCC)cc1O (stereo not drawn) [CBD, 2-(6-isopropenyl-3-methyl-2-cyclohexen-l-yl)-5-pentyl-1,3-benzenediol]
5 mg, bioactivity .20
  Calcification reduction, M: 5.17%
  Calcification reduction, Max: 6.9%
  Calcification reduction, Min: 3.8%
5 mg, bioactivity .30
  Calcification reduction, M: 6.16%
  Calcification reduction, Max: 7.3%
  Calcification reduction, Min: 5.2%
5 mg, bioactivity .50
  Calcification reduction, M: 7.63%
  Calcification reduction, Max: 9.1%
  Calcification reduction, Min: 5.3%
5 mg, bioactivity .60
  Calcification reduction, M: 7.99%
  Calcification reduction, Max: 10.4%
  Calcification reduction, Min: 6.2%
5 mg, bioactivity .70
  Calcification reduction, M: 10.06%
  Calcification reduction, Max: 13.6%
  Calcification reduction, Min: 7.3%
5 mg, bioactivity .80
  Calcification reduction, M: 14.32%
  Calcification reduction, Max: 16.6%
  Calcification reduction, Min: 11.3%
5 mg, bioactivity .90
  Calcification reduction, M: 18.06%
  Calcification reduction, Max: 21%
  Calcification reduction, Min: 14.6%
5 mg, bioactivity .95
  Calcification reduction, M: 19.42%
  Calcification reduction, Max: 22.1%
  Calcification reduction, Min: 15.4%
10 mg, bioactivity .20
  Calcification reduction, M: 4.95%
  Calcification reduction, Max: 6.2%
  Calcification reduction, Min: 3.7%
10 mg, bioactivity .30
  Calcification reduction, M: 6.24%
  Calcification reduction, Max: 7.5%
  Calcification reduction, Min: 4.9%
10 mg, bioactivity .50
  Calcification reduction, M: 9.77%
  Calcification reduction, Max: 11.7%
  Calcification reduction, Min: 7.7%
10 mg, bioactivity .60
  Calcification reduction, M: 11.8%
  Calcification reduction, Max: 14.3%
  Calcification reduction, Min: 9.2%
10 mg, bioactivity .70
  Calcification reduction, M: 14.33%
  Calcification reduction, Max: 17.2%
  Calcification reduction, Min: 10.2%
10 mg, bioactivity .80
  Calcification reduction, M: 20.03%
  Calcification reduction, Max: 24.6%
  Calcification reduction, Min: 15.9%
10 mg, bioactivity .90
  Calcification reduction, M: 25.04%
  Calcification reduction, Max: 30.3%
  Calcification reduction, Min: 20.5%
10 mg, bioactivity .95
  Calcification reduction, M: 25.56%
  Calcification reduction, Max: 32.5%
  Calcification reduction, Min: 18.5%
25 mg, bioactivity .20
  Calcification reduction, M: 6.07%
  Calcification reduction, Max: 7.1%
  Calcification reduction, Min: 4.8%
25 mg, bioactivity .30
  Calcification reduction, M: 6.23%
  Calcification reduction, Max: 8.1%
  Calcification reduction, Min: 4.6%
25 mg, bioactivity .50
  Calcification reduction, M: 10.89%
  Calcification reduction, Max: 12.5%
  Calcification reduction, Min: 9.5%
25 mg, bioactivity .60
  Calcification reduction, M: 13.75%
  Calcification reduction, Max: 15.3%
  Calcification reduction, Min: 10.5%
25 mg, bioactivity .70
  Calcification reduction, M: 16.55%
  Calcification reduction, Max: 18.6%
  Calcification reduction, Min: 14.3%
25 mg, bioactivity .80
  Calcification reduction, M: 24.94%
  Calcification reduction, Max: 30.3%
  Calcification reduction, Min: 20.2%
25 mg, bioactivity .90
  Calcification reduction, M: 30.51%
  Calcification reduction, Max: 35.6%
  Calcification reduction, Min: 23.5%
25 mg, bioactivity .95
  Calcification reduction, M: 32.69%
  Calcification reduction, Max: 42.6%
  Calcification reduction, Min: 26.3%
40 mg, bioactivity .20
  Calcification reduction, M: 5.19%
  Calcification reduction, Max: 6.9%
  Calcification reduction, Min: 3.6%
40 mg, bioactivity .30
  Calcification reduction, M: 7.13%
  Calcification reduction, Max: 8.1%
  Calcification reduction, Min: 5.1%
40 mg, bioactivity .50
  Calcification reduction, M: 14.2%
  Calcification reduction, Max: 17.1%
  Calcification reduction, Min: 12%
40 mg, bioactivity .60
  Calcification reduction, M: 19.23%
  Calcification reduction, Max: 21.9%
40 mg, bioactivity .70
  Calcification reduction, M: 24.7%
  Calcification reduction, Max: 33%
  Calcification reduction, Min: 18.9%
40 mg, bioactivity .80
  Calcification reduction, M: 28.54%
  Calcification reduction, Max: 34.6%
  Calcification reduction, Min: 22.4%
40 mg, bioactivity .90
  Calcification reduction, M: 40.09%
  Calcification reduction, Max: 44.6%
  Calcification reduction, Min: 33.7%
40 mg, bioactivity .95
  Calcification reduction, M: 42.98%
  Calcification reduction, Max: 54.5%
  Calcification reduction, Min: 35.8%
100 mg, bioactivity .20
  Calcification reduction, M: 6.1%
  Calcification reduction, Max: 7.5%
  Calcification reduction, Min: 5.2%
100 mg, bioactivity .30
  Calcification reduction, M: 7.2%
  Calcification reduction, Max: 8.4%
  Calcification reduction, Min: 6%
100 mg, bioactivity .50
  Calcification reduction, M: 16.1%
  Calcification reduction, Max: 18.1%
  Calcification reduction, Min: 14.1%
100 mg, bioactivity .60
  Calcification reduction, M: 21.54%
  Calcification reduction, Max: 23.7%
  Calcification reduction, Min: 18.3%
100 mg, bioactivity .70
  Calcification reduction, M: 30.71%
  Calcification reduction, Max: 35.6%
  Calcification reduction, Min: 25.8%
100 mg, bioactivity .80
  Calcification reduction, M: 37.74%
  Calcification reduction, Max: 44.4%
  Calcification reduction, Min: 31.7%
100 mg, bioactivity .90
  Calcification reduction, M: 48.52%
  Calcification reduction, Max: 54.7%
  Calcification reduction, Min: 37.6%
100 mg, bioactivity .95
  Calcification reduction, M: 55%
  Calcification reduction, Max: 66.1%
  Calcification reduction, Min: 41.9%
[1]
  Calcification reduction, M: 19.42%
  Calcification reduction, Max: 22.1%
  Calcification reduction, Min: 15.4%
[2]
  Calcification reduction, M: 25.56%
  Calcification reduction, Max: 32.5%
  Calcification reduction, Min: 18.5%
[3]
  Calcification reduction, M: 32.69%
  Calcification reduction, Max: 42.6%
  Calcification reduction, Min: 26.3%
[4]
  Calcification reduction, M: 42.98%
  Calcification reduction, Max: 54.5%
  Calcification reduction, Min: 35.8%
[5]
  Calcification reduction, M: 55%
  Calcification reduction, Max: 66.1%
  Calcification reduction, Min: 41.9%
